pEC50: −log10 of the molar value.

For assay [1], the target named is T1, human toll like receptor 8 (hTLR8) (Homo sapiens, UniProt Q9NR97).
T1 construct: host or cells: HEK293 (HEK-Blue hTLR8)
T1 sequence (Q9NR97 27-1041): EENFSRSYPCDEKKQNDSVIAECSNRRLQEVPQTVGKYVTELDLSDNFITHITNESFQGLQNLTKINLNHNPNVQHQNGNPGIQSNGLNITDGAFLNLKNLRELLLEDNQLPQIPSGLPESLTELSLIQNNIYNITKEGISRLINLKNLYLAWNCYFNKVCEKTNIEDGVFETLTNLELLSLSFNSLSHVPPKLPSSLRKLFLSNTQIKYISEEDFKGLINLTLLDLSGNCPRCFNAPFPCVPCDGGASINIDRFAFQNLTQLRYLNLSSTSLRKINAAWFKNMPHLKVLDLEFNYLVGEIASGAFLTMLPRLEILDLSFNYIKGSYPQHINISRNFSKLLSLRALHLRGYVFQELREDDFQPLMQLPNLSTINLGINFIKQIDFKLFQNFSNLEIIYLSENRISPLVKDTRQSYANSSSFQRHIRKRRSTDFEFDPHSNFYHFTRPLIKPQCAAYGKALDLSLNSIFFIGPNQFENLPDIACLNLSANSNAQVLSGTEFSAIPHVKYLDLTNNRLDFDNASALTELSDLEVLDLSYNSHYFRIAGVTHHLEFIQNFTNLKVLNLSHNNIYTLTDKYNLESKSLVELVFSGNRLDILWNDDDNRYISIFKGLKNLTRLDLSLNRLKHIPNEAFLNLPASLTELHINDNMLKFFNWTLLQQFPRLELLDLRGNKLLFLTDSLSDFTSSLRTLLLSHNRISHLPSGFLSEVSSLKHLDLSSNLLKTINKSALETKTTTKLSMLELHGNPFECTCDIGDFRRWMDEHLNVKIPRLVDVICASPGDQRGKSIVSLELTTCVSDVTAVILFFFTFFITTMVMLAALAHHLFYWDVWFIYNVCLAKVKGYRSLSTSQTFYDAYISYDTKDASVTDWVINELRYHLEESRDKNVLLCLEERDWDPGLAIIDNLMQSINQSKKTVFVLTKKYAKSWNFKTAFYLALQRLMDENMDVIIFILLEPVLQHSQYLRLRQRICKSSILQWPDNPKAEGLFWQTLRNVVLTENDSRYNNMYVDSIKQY
Kind of assay: hTLR8 in-vitro functional assay (HEK-Blue hTLR8 SEAP reporter). Format: cell-based. The settings on record: HEK-Blue hTLR8 cells, overnight incubation. The text has this:
(§1) To determine the ability of test compounds to activate the human toll like receptor 7 (hTLR7) or human toll like receptor 8 (hTLR8), cell-based reporter systems were utilized. HEK293 cells stably overexpressing either hTLR7 or hTLR8 along with a reporter gene containing an optimized secreted embryonic alkaline phosphatase gene (SEAP), under the control of the IFN-b minimal promoter fused to five NF-kB and AP-1-binding sites, were obtained from Invivogen (HEK-Blue™ hTLR7, cat #Hkb-htlr7; HEK-Blue™ hTLR8, cat #Hkb-htlr8). Stimulation of hTLR7 or hTLR8 in these cells activates NF-kB and AP-1 and induces the production of SEAP which can be quantified using an alkaline phosphatase detection reagent.
(§2) On day one of the assay, compounds were prepared using 11-point half-log serial dilutions from a 10 mM DMSO stock solution and 50 nL was spotted into 384-well plates (PerkinElmer, cat #6007480). Positive and negative controls were also spotted within the assay plate and were used to determine percent effect during the analysis process. After resuspension in DMEM assay media containing FBS heat inactivated (10%), Glutamax (2 mM) and Penicillin/Streptomycin, 10,000 cells/20 ul/well were added to previously prepared compound plates. Plates were incubated overnight (16-20 hrs) at 37° C. in a 5% CO2 environment. Prewetted Microclime lids (Labcyte, LLS-0310) were used to prevent evaporation. On day two of the assay, QUANTI-Blue™ detection reagent was prepared by reconstituting QUANTI-Blue™ powder (InvivoGen, Rep-qb1) with 100 ml of sterile water and allowed to equilibrate to 37° C. for 15 minutes. 20 ul of QUANTI-Blue™ detection reagent was added to each well and plates were incubated at room temperature for 180 min. At the end of the incubation, plates were read on an Envision (Perkin Elmer) plate reader capturing absorbance at 650 nm.
(§3) Using Positive (tool compound) and Negative (DMSO) controls, the percent (%) effect was calculated for each sample using the following equation: […]
(§4) The % effect at each concentration of compound was calculated utilizing the ABase software suite (IBDS) and was relative to the amount of SEAP produced in the positive and negative control wells contained within each assay plate. The concentrations and % effect values for test compounds were fit using a 4-parameter logistic model in ABase and the concentration of compound that produced 50% response (EC50) was calculated.

The target of assay [2] is T2, human toll like receptor 7 (hTLR7) (Homo sapiens, UniProt Q9NYK1).
T2 construct: host or cells: HEK293 (HEK-Blue hTLR7)
T2 sequence (Q9NYK1 27-1049): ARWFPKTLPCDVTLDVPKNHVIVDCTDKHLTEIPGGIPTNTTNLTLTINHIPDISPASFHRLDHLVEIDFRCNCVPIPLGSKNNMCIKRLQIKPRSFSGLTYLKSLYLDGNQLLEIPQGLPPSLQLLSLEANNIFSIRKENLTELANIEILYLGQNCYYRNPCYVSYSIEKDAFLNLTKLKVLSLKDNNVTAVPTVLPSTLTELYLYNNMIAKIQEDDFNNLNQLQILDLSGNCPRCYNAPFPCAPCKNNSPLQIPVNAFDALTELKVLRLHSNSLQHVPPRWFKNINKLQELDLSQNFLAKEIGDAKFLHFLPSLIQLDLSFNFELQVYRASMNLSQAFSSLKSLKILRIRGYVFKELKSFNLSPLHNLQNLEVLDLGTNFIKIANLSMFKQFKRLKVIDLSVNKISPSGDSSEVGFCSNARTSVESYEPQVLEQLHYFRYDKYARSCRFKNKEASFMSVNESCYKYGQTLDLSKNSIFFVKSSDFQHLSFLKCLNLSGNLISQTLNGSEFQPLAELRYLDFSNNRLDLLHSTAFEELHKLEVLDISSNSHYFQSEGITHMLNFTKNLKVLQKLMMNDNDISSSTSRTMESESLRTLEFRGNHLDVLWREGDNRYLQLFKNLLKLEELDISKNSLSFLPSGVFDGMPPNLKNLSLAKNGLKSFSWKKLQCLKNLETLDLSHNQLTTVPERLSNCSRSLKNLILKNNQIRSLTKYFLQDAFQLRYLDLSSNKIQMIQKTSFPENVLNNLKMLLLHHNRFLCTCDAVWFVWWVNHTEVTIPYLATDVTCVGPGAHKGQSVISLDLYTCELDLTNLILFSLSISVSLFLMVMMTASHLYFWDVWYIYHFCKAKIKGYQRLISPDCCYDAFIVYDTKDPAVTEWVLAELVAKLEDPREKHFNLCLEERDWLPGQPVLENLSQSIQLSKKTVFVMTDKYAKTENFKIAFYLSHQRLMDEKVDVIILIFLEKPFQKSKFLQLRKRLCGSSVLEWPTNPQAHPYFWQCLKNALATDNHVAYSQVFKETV
Kind of assay: hTLR7 in-vitro functional assay (HEK-Blue hTLR7 SEAP reporter). Format: cell-based. The settings on record: HEK-Blue hTLR7 cells, overnight incubation.
Source text: as §1, §2, §3, §4

As to `CCCCc1nc2c(N)nc3cc(CCCN4CCN(C(=O)CCOCCOCCOCCOCCOCCOCCOCCOCCOCCOCCOCCOCCNC(=O)CCOCCOCCOCCOCCNC(=O)O[C@H]5CC[C@@]6(C)C(=CC[C@H]7[C@@H]8CC[C@H]([C@H](C)CCCC(C)C)[C@@]8(C)CC[C@@H]76)C5)CC4)ccc3c2n1CC(C)(CO)CO` [Compound 6, (3beta,20R)-cholest-5-en-3-yl {55-[4-(3-{4-amino-2-butyl-1-[3-hydroxy-2-(hydroxymethyl)-2-methylpropyl]-1H-imidazo[4,5-c]quinolin-7-yl}propyl)piperazin-1-yl]-15,55-dioxo-3,6,9,12,19,22,25,28,31,34,37,40,43,46,49,52-hexadecaoxa-16-azapentapentacont-1-yl}carbamate], the pEC50 in assay [1] is 5.29; in assay [2] it was 7.11.

As for `CCCCc1nc2c(N)nc3cc(CCCN4CCN(C(=O)CCOCCOCCOCCOCCOCCOCCOCCOCCOCCOCCOCCOCCOCCOCCOCCOCCOCCOCCOCCOCCOCCOCCOCCOCCNC(=O)CCOCCOCCOCCOCCOCCOCCOCCOCCOCCOCCOCCOCCOCCOCCOCCOCCOCCOCCOCCOCCOCCOCCOCCOCCNC(=O)O[C@H]5CC[C@@]6(C)C(=CC[C@H]7[C@@H]8CC[C@H]([C@H](C)CCCC(C)C)[C@@]8(C)CC[C@@H]76)C5)CC4)ccc3c2n1CC(C)(CO)CO` [Compound 8, (3beta,20R)-cholest-5-en-3-yl {151-[4-(3-{4-amino-2-butyl-1-[3-hydroxy-2-(hydroxymethyl)-2-methylpropyl]-1H-imidazo[4,5-c]quinolin-7-yl}propyl)piperazin-1-yl]-75,151-dioxo-3,6,9,12,15,18,21,24,27,30,33,36,39,42,45,48,51,54,57,60,63,66,69,72,79,82,85,88,91,94,97,100,103,106,109,112,115,118,121,124,127,130,133,136,139,142,145,148-octatetracontaoxa-76-azahenpentacontahect-1-yl}carbamate], the pEC50 in assay [1] was 6.14; in assay [2] it was 6.82.

Take `CCCCc1nc2c(N)nc3cc(CCCN4CCN(C(=O)CCOCCOCCOCCOCCOCCOCCOCCOCCOCCOCCOCCOCCOCCOCCOCCOCCOCCOCCOCCOCCOCCOCCOCCOCCOCCOCCOCCOCCOCCOCCOCCOCCOCCOCCOCCOCCNC(=O)CCOCCOCCOCCOCCNC(=O)CCCOc5c(C)c(C)c6c(c5C)CC[C@@](C)(CCC[C@H](C)CCC[C@H](C)CCCC(C)C)O6)CC4)ccc3c2n1CC(C)(CO)CO` [Compound 24]: the pEC50 is 5.62 in assay [1] and 6.87 in assay [2].

With `CCOCc1nc2c(N)nc3cc(CCCN4CCN(C(=O)CCOCCOCCOCCOCCOCCOCCOCCOCCOCCOCCOCCOCCOCCOCCOCCOCCOCCOCCOCCOCCOCCOCCOCCOCCNC(=O)CCOCCOCCOCCOCCNC(=O)O[C@H]5CC[C@@]6(C)C(=CC[C@H]7[C@@H]8CC[C@H]([C@H](C)CCCC(C)C)[C@@]8(C)CC[C@@H]76)C5)CC4)ccc3c2n1CC(C)(CO)CO` [Compound 5, (3beta)-cholest-5-en-3-yl {91-[4-(3-{4-amino-2-(ethoxymethyl)-1-[3-hydroxy-2-(hydroxymethyl)-2-methylpropyl]-1H-imidazo[4,5-c]quinolin-7-yl}propyl)piperazin-1-yl]-15,91-dioxo-3,6,9,12,19,22,25,28,31,34,37,40,43,46,49,52,55,58,61,64,67,70,73,76,79,82,85,88-octacosaoxa-16-azahennonacont-1-yl}carbamate], the pEC50 in assay [1] is 5.64; in assay [2], 7.14.

`CCCCc1nc2c(N)nc3cc(CCCN4CCN(CCCOCCOCCOCCOCCOCCOCCOCCOCCNC(=O)O[C@H]5CC[C@@]6(C)C(=CC[C@H]7[C@@H]8CC[C@H]([C@H](C)CCCC(C)C)[C@@]8(C)CC[C@@H]76)C5)CC4)ccc3c2n1CC(C)(CO)CO` [Compound 23, (20R)-cholest-5-en-3beta-yl {27-[4-(3-{4-amino-2-butyl-1-[3-hydroxy-2-(hydroxymethyl)-2-methylpropyl]-1H-imidazo[4,5-c]quinolin-7-yl}propyl)piperazin-1-yl]-3,6,9,12,15,18,21,24-octaoxaheptacosan-1-yl}carbamate]: the results for the negative-log EC50 (pEC50) in assay [1] and in assay [2] were 4.83 and 5.78, respectively.

As for `CCCCc1nc2c(N)nc3cc(CCCN4CCN(C(=O)CCOCCOCCOCCOCCOCCOCCOCCOCCOCCOCCOCCOCCNC(=O)CCOCCOCCOCCOCCNC(=O)CCCOc5c(C)c(C)c6c(c5C)CC[C@@](C)(CCC[C@H](C)CCC[C@H](C)CCCC(C)C)O6)CC4)ccc3c2n1CC(C)(CO)CO` [Compound 25, N-{39-[4-(3-{4-amino-2-butyl-1-[3-hydroxy-2-(hydroxymethyl)-2-methylpropyl]-1H-imidazo[4,5-c]quinolin-7-yl}propyl)piperazin-1-yl]-39-oxo-3,6,9,12,15,18,21,24,27,30,33,36-dodecaoxanonatriacontan-1-yl}-17-oxo-20-({(2R)-2,5,7,8-tetramethyl-2-[(4R,8R)-4,8,12-trimethyltridecyl]-3,4-dihydro-2H-1-benzopyran-6-yl}oxy)-4,7,10,13-tetraoxa-16-azaicosan-1-amide], the results for the pEC50 in assay [1] and in assay [2] were 5.08 and 6.51, respectively.

Usually pEC50 stands for the negative decadic logarithm of the EC50, by convention in mol/L. Read a high pEC50 as a low EC50.

The values above are taken from patent US20250135006A1, “AMPHIPHILIC TLR7/8 ADJUVANTS AND USES THEREOF” (Pfizer Inc., priority 2023, published 2025).
